Results as given in patent US20200032271A1, “COMBINATION THERAPY WITH LIPOSOMAL ANTISENSE OLIGONUCLEOTIDES” (Bio-Path Holdings, Inc., priority 2016, published 2020).
Several values for one entry are separate records, joined by “and”; a condition that tells them apart may be missing. Equal values may be shown once. [PEt] = P-ethoxy (ethyl phosphotriester) internucleoside linkage

Legend:
[1] = system: 32Dp210 Bcr-Abl positive leukemia cells; assay: Survival of mice injected with 32Dp210 Bcr-Abl positive leukemia cells, first study; assay type: in vivo
Procedure: In one study, mice injected with 32Dp210 Bcr-Abl positive leukemia cells were treated with BP1001 (15 mg/kg/dose) or control (empty DOPC liposomes) intravenously beginning one day after injection of tumor cells, twice weekly for up to 6 weeks Mice were observed daily for moribundity/morbidity. All surviving mice were euthanized on Day 40. In mice injected with 32Dp210 Bcr-Abl positive leukemia cells, 60% treated with BP1001 survived to 40 days (end of study) compared to 17% of mice receiving empty liposomes. Mean survival duration in these treated animals was 31.6±13.1 days compared to 23.7±8.3 days in the empty liposome group (FIG. 6A).

[2] = Procedure: The potential toxicity of a twice weekly intravenously (slow bolus) administered BP1001 in Dutch Belted rabbits was conducted. BP1001 was administered over a 28-day period followed by a 2-week recovery phase.
Doses were administered on Study Days 1, 3, 8, 10, 15, 17, 22, and 24. The first day of dosing on the study was designated as Study Day 1. The doses were given at approximately the same time each day. Individual dose volumes were calculated based on the most recently recorded body weight for each animal. Study Day 1 dose levels were calculated on a pretest body weight.

[3] = system: phosphorylated Erk1,2 (pErk); assay: Flow cytometry of pErk levels in circulating leukemia cells of patients; assay type: in vivo, human; conditions: for pErk decrease (%) (Day 15) / pErk decrease (%) (Day 22 or end-of-treatment): individual subjects
Text: (§1) Flow cytometry was used to determine the levels of Grb2 and pErk proteins in the circulating leukemia cells of patients who were on BP1001 single agent therapy, and were reported as median fluorescent intensity (MFI). MFI of Grb2 and pErk during treatment were compared to those at baseline.
Peripheral blood was collected from patients in cohorts 3, 4, 5, and 6, before being dosed on Cycle 1 days 1, 8, 15 and 22, and Cycle 2 day 1. White blood cells were isolated from peripheral blood using BD Vacutainer CPT cell preparation tubes with sodium heparin (BD Dickinson), fixed and stored in −80° C. freezer. Flow cytometry was utilized to determine Grb2 and phosphorylated Erk1,2 (pErk) levels in CD33-expressing cells using a validated method (Flow Contract Site Laboratory, Bothell, Wash., USA).
as §1, with “utilized” for “used”, “baseline (Table 7).” for “baseline.”

[4] = Plasma pharmacokinetics of Grb2 antisense oligo in patients; conditions: human, in vivo
Procedure: Pharmacokinetic (PK) analysis was performed on plasma samples collected from refractory/relapsed patients diagnosed with AML receiving BP1001 (60 mg/m^2)+LDAC or receiving BP1001 (90 mg/m^2)+LDAC.
Blood samples for measurement of Grb2 antisense oligo concentrations were collected from patients in cohorts 7 and 8, at predose, 1, 2, 4, 6, 8, 24, 72 h post start-of-infusion (SOI). Urine samples for measurement of BP1001 concentrations were also collected from patients in cohorts 7 and 8, at start of dose-4 h, 4-8 h postdose, and 8-24 h postdose. PK blood samples were processed to plasma and analyzed using a validated method (Charles River Laboratories, Montreal, Canada) with a lower limit of quantitation (LLOQ; 0.5 ng/mL). Urine samples were analyzed using a validated method (Charles River Laboratories, Montreal, Canada) with a LLOQ of 1.00 ng/mL.
PK parameters were estimated using Phoenix pharmacokinetic software (Certara). A non-compartmental approach consistent with the IV infusion route of administration was used for parameter estimation, using an estimated infusion time of 2.5 h. All parameters were generated from Grb2 antisense oligo individual concentrations in plasma from Day 1 of Cycle 1, whenever practical. […] Parameters were estimated using nominal sampling times relative to the start of infusion. The area under the concentration vs. time curve (AUC) was calculated using the linear trapezoidal method with linear interpolation. The slope of the terminal elimination phase was determined using log linear regression on the unweighted concentration data.

## BP1001: liposome-incorporated P-ethoxy antisense oligodeoxynucleotide (5′-ATATTTGGCGATGGCTTC-3′, SEQ ID NO: 1) specific to grb2 mRNA, in neutral DOPC liposomes (DNA, all [PEt], methylation of C not given here; incorporated in neutral DOPC liposomes)
[1]; 15 mg/kg/dose i.v. twice weekly
  Mean survival duration: 31.6 ± 13.1 days
[1]; 15 mg/kg/dose i.v. twice weekly from day 1 after tumor cells
  mice surviving to 40 days (end of study): 60%
[2]; rabbit
  effects on coagulation parameters: no observed effects
[2]; rabbit, 3.75, 5.00 or 7.50 mg/kg i.v. slow bolus twice weekly, 28 days
  toxicity (clinical observations, body weights, bone marrow cytology, clinical pathology, organ weights, microscopic findings): no apparent toxicity
[3]; cohort 3, 20 mg/m^2
  pErk decrease (%) (Day 15): 3% and 28% and 0%
  pErk decrease (%) (Day 22 or end-of-treatment): 45% and 35% and 0%
[3]; cohort 4, 40 mg/m^2
  pErk decrease (%) (Day 15): 82% and 0%
  pErk decrease (%) (Day 22 or end-of-treatment): 91% and 0% and 27%
[3]; cohort 5, 60 mg/m^2
  pErk decrease (%) (Day 15): 0% and 51% and 55%
  pErk decrease (%) (Day 22 or end-of-treatment): 54% and 0% and 47%
[3]; cohort 6, 90 mg/m^2
  pErk decrease (%) (Day 15): 0% and 54% and 42%
  pErk decrease (%) (Day 22 or end-of-treatment): 0% (2×) and 63%
[3]; last measured sample
  average decrease in pErk levels: 52%
[3]; last measured sample (end of treatment or cycle 1 day 22), MFI vs baseline
  samples with ≥25% decrease of pErk levels: 7 out of 12
[4]; 60 mg/m2
  Tmax: 1 h
  t1/2: 29.6 ± 8.1 h
[4]; 90 mg/m2
  Tmax: 1 h
  t1/2: 11.8 ± 5.4 h
